Assay results published in patent US9115059B2, “Oxime derivatives of 3,5-seco-4-nor-cholestane, pharmaceutical compositions containing same, and method for preparing same” (TROPHOS, priority 2008, dated 2015).

tested on: motoneurons; experiment: Survival of motoneurons under trophic deprivation in vitro (calcein fluorescence); type: cell-based; conditions: concentration 0.3 μM; E14 rat motoneurons, 3 days of culture in Neurobasal medium without trophic factors
Excerpt: It may be useful to refer to patent application WO 0142784 of the applicant regarding culture of the motoneurons of the spinal cord.
The spinal cord of E14 rat embryos is dissected and the ventral part is dissociated by trituration after trypsinization.
The motoneurons are separated from the other spinal cells by a known method (Camu et al., 1993, Purification of spinal motoneurons from chicken and rat embryos by immunopanning. In “Immunoselection Strategies for Neural cell culture”, Neuroprotocols: A companion to Methods in Neurosciences 2, 191-199; Henderson et al., 1993, Neutrophins promote motoneuron survival and are present in embryonic limb bud. Nature 363 (6426):266-70).
The cells are centrifuged on a density gradient. The motoneurons are enriched in the fraction of large cells (the […]). The cells of this fraction are incubated with an anti-p75 antibody, a surface antigen present on motoneurons.
Secondary antibodies coupled to magnetic beads are added and the mixture of cells is passed through a column in a magnet (Arce et al., 1999 Cardiotrophin-1 requires LIFRbeta to promote survival of mouse motoneurons purified by a novel technique. J. Neurosci Res 55(1): 119-26). Only the motoneurons are retained: their purity is of the order of 90%.
The motoneurons are seeded at low density in culture wells on a polyornithine-laminin substrate in a Neurobasal medium (GIBCO) supplemented according to Raoul et al., 1999, Programmed cell death of embryonic motoneurons triggered through the Fas death receptor. J Cell Biol 147(5):1049-62.
Negative controls (absence of trophic factors) and positive controls (in the presence of BDNF (Brain-Derived Neurotrophic Factor) at 1 ng/ml, GDNF (Glial-Derived Neurotrophic Factor) at 1 ng/ml and CNTF (Ciliary Neurotrophic Factor) at 10 ng/ml, marketed by the American company PEPROTECH, Inc. and the company Sigma-Aldrich, are included in each series.
The test compounds are added 60 minutes after seeding and the cultures are kept at 37° C. under 5% CO2 for 3 days.
The motoneurons have a spontaneous tendency to die in the absence of neurotrophic factors (Pettmann and Henderson, 1998, Neuronal cell death. Neuron 20(4):633-47). After 3 days, survival is evaluated by measurement of fluorescence after incubation of the cells in the presence of calcein, which becomes fluorescent in living cells.
After 3 days of culture at 37° C., under 5% CO2 and at saturating humidity, up to 50% of the motoneurons seeded initially survive in the medium supplemented with neurotrophic factors, whereas less than 15% of the motoneurons survive in the culture medium without addition of neurotrophic factors.
The neuroprotective activity of the test compounds was evaluated by their capacity for preventing death of motoneurons when they are added to the Neurobasal medium (GIBCO) in comparison with the survival of motoneurons in the medium to which neurotrophic factors were added.
This survival rate is expressed by the number of living cells after treatment with the test compound relative to the survival induced by the neurotrophic factors. This ratio can therefore represent the percentage survival due to the compound tested relative to the survival induced by the neurotrophic factors. If the ratio is greater than 0, the compounds have a positive effect on survival of the motoneurons.

Row | Compound | Ratio (living cells after treatment with the test compound relative to the survival induced by the neurotrophic factors)
1 | CC(C)CCC[C@@H](C)[C@H]1CCC2C3CC/C(=N/O)[C@](C)(CCCN(C)C(=O)CCCC[C@@H]4SC[C@@H]5NC(=O)N[C@@H]54)C3CC[C@@]21C (stereo partly drawn) [Compound 4, 3-[(N-(+)-biotinoyl-N-methyl)amino]-4-nor-3,5-secocholestan-5-one oxime] | >0.2

same assay, conditions: concentration 1 μM; E14 rat motoneurons, 3 days of culture in Neurobasal medium without trophic factors

Row | Compound | Ratio (living cells after treatment with the test compound relative to the survival induced by the neurotrophic factors)
2 | CC(C)=CCCC(C)C1CCC2C3CCC(=NO)C(C)(CCCO)C3CCC12C (stereo not drawn) [Compound 11, 4-nor-3,5-secocholest-24-en-3-ol-5-one oxime] | >0.2
3 | 7-hydroxyamino-4-nor-3,5-secocholest-6-year-3-ol-5-one oxime [Compound 9] | >0.2
4 | CCCC1(C)C(=NO)CCC2C1CCC1(C)C(C(C)CCCC(C)C)CCC21 (stereo not drawn) [Compound 7, 4-nor-3,5-secocholestan-5-one oxime] | >0.2
5 | CC(C)CCC[C@@H](C)[C@H]1CCC2C3CC/C(=N/O)[C@](C)(CCCN(C)c4ccc([N+](=O)[O-])c5nonc45)C3CC[C@@]21C (stereo partly drawn) [Compound 5, 3-[methyl-(7-nitro-2,1,3-benzoxadiazol-4-yl)amino]-4-nor-3,5-secocholestan-5-one oxime] | >0.2
6 | CC(C)CCCC(C)C1CCC2C3CCC(=NO)C(C)(CCO)C3CCC12C (stereo not drawn) [Compound 10, 3,4-dinor-2,5-secocholestan-2-ol-5-one oxime] | >0.2
7 | CC(C)CCCC(C)C1CCC2C3CCC(=NO)C(C)(CCC(O)C(F)(F)F)C3CCC12C (stereo not drawn) [Compound 3, 4-nor-3,5-seco-3-(trifluoromethyl)cholestan-3-ol-5-one oxime] | >0.2
8 | CC(C)CCCC(C)C1CCC2C3C=CC(=NO)C(C)(CCCO)C3CCC12C (stereo not drawn) [Compound 8, 4-nor-3,5-secocholest-6-en-3-ol-5-one oxime] | >0.2
9 | CCC(C=CC(C)C1CCC2C3CCC(=NO)C(C)(CCCO)C3CCC12C)C(C)C (stereo not drawn) [Compound 12, 24β-ethyl-4-nor-3,5-secocholest-22-en-3-ol-5-one oxime] | >0.2

same assay, conditions: concentration 3 μM; E14 rat motoneurons, 3 days of culture in Neurobasal medium without trophic factors

Row | Compound | Ratio (living cells after treatment with the test compound relative to the survival induced by the neurotrophic factors)
10 | CC(CCCC(C)(C)O)C1CCC2C3CCC(=NO)C(C)(CCCO)C3CCC12C (stereo not drawn) [Compound 2, 4-nor-3,5-secocholestan-3,25-diol-5-one oxime] | >0.2
11 | CC(CCCC(C)(C)F)C1CCC2C3CCC(=NO)C(C)(CCCO)C3CCC12C (stereo not drawn) [Compound 6, 25-fluoro-4-nor-3,5-secocholestan-3-ol-5-one oxime] | >0.2

tested on: avidins (streptavidin or neutravidin); experiment: not given; conditions: cited from earlier work

Row | Compound | Ka (affinity of avidins for biotin)
12 | O=C(O)CCCC[C@@H]1SC[C@@H]2NC(=O)N[C@@H]21 [biotin] | ~10^7 M
